Experimental data published in patent publication US20120165319A1, “INHIBITORS OF INTERLEUKIN-1 BETA CONVERTING ENZYME” (VERTEX PHARMACEUTICALS INCORPORATED, priority 1995, published 2012).
Where two headings read alike, the source gives them in different places. Blank lines part the entries; values can stand above or below the compound they belong to.

Assays:
IL-1β, human whole blood = assay: Whole blood assay for IL-1β production; assay type: cell-based
Summary of the method: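 IL-1β was quantified by ELISA in plasma diluted 1:200. The plasma came from EDTA-anticoagulated human whole blood incubated at 30 °C for 16-18 h with LPS (final 5.0 ng/ml) plus a saline serial dilution of compound. Controls were no-LPS, no-inhibitor and highest-vehicle.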

[1] = tested on: IL-1β production, LPS-challenged mice; assay: In vivo acute assay for efficacy as anti-inflammatory agent: LPS-induced IL-1β production in mice; set-up: species or system mouse; conditions: LPS challenged mice, 50 mg/kg; for inhibition at 50 mg/kg: Mus musculus, po, read-out: percent inhibition of IL-1β production; for inhibition at 50 mg/kg / percent inhibition of IL-1β production: compound PO; for Inhibition of IL-1β Production, compound administered 0 hr relative to LPS challenge / Inhibition of IL-1β Production, compound administered +1 hr relative to LPS challenge / Inhibition of IL-1β Production, compound administered −1 hr relative to LPS challenge / Inhibition of IL-1β Production, compound administered −2 hr relative to LPS challenge: PO, * = values obtained in subsequent assays (Table 4)
Summary of the method: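 Serum IL-1β was measured by ELISA 7 h after an IP dose of 20 mg/kg LPS in CD1 mice, n=6 per group. Compounds in olive oil/DMSO/ethanol 90:5:5 were injected IP 1 h post-LPS (some analogs were dosed at challenge), and separate groups received 50 mg/kg by oral gavage.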

[2] = Homo sapiens, Table 17, read-out: Whole human blood IC50
[3] = 0 h, administered 0 h relative to time of LPS challenge
[4] = 2 h, administered −2 h relative to time of LPS challenge
[5] = Table 18, read-out: Whole human blood IC5O
[6] = Homo sapiens, * = values obtained upon reassay, read-out: Whole human blood IC50
[7] = * = values obtained upon reassay, read-out: Whole human blood IC50

Structure (SMILES): O=C1C[C@H](NC(=O)[C@@H]2CCCN3C(=O)CC[C@H](NC(=O)c4ccccc4)C(=O)N23)C(OCCc2ccccc2)O1 (mixture of isomers) [Compound 2100k, [1S,9S(2RS,3S)]9-Benzoylamino-6,10-dioxo-1,2,3,4,7,8,9,10-octahydro-N-(2-phenethyloxy-5-oxotetrahydrofuran-3-yl)-6H-pyridazino[1,2-a][1,2]diazepine-1-carboxamide]
IC50 (IL-1β, human whole blood; [2]): 600 nM | inhibition at 50 mg/kg [1, 3]: 32% | inhibition at 50 mg/kg ([1]; 1 h, administered +1 h relative to time of LPS challenge): 72% | inhibition at 50 mg/kg ([1]; 1 h, administered −1 h relative to time of LPS challenge): 50% | inhibition at 50 mg/kg [1, 4]: 30%

Structure (SMILES): CS(=O)(=O)N[C@H]1CCC(=O)N2CCC[C@@H](C(=O)N[C@@H](CC(=O)O)C(=O)COC(=O)c3sccc3Cl)N2C1=O [505 e, [3S(1S,9S)]5-(3-Chlorothien-2-oyloxy)-3-(6,10-dioxo-9-methanesulphonylamino-1,2,3,4,7,8,9,10-octahydro-6H-pyridazino[1,2-a][1,2]diazepine-1-carboxamido)-4-oxopentanoic acid]
IC50 (IL-1β, human whole blood; [5]): 1000 nM

Structure (SMILES): O=C(O)C[C@H](NC(=O)[C@@H]1CCCN2C(=O)CC[C@H](NC(=O)CCc3ccccc3)C(=O)N12)C(=O)c1ncc(-c2c(Cl)cccc2Cl)o1 [Compound 137]
IC50 (IL-1β, human whole blood; [6]): 14000 nM

Structure (SMILES): O=C1C[C@H](NC(=O)[C@@H]2CCCN3C(=O)CC[C@H](NC(=O)c4ccccc4)C(=O)N23)C(OCc2ccccc2)O1 (stereo partly drawn) [Compound 213e, [1S,9S(2RS,3S)]9-Benzoylamino-6,10-dioxo-1,2,3,4,7,8,9,10-octahydro-N-(2-benzyloxy-5-oxotetrahydrofuran-3-yl)-6H-pyridazino[1,2-a][1,2]-diazepine-1-carboxamide]
IC50 (IL-1β, human whole blood; [7]): 400 nM | IC50 (IL-1β, human whole blood; [6]): 600 nM | Inhibition of IL-1β Production, compound administered 0 hr relative to LPS challenge [1]: 41% | Inhibition of IL-1β Production, compound administered +1 hr relative to LPS challenge [1]: 89% | Inhibition of IL-1β Production, compound administered −1 hr relative to LPS challenge [1]: 48% | Inhibition of IL-1β Production, compound administered −2 hr relative to LPS challenge [1]: 0%

Structure (SMILES): O=C[C@H](CC(=O)O)NC(=O)[C@@H]1CCCN2C(=O)CC[C@H](NC(=O)c3cc(Cl)c(O)c(Cl)c3)C(=O)N12 [Compound 214k, [3S(1S,9S)]3-(9-(3,5-Dichloro-4-hydroxybenzoyl)amino-6,10-dioxo-1,2,3,4,7,8,9,10-octahydro-6H-pyridazino[1,2-a][1,2]diazepine-1-carboxamido)-4-oxobutanoic acid]
IC50 (IL-1β, human whole blood; [2]): 580 nM | inhibition at 50 mg/kg [1, 3]: 31% | inhibition at 50 mg/kg [1, 4]: 12%

Structure (SMILES): CC(=O)Nc1ccc(C(=O)N[C@H]2CCC(=O)N3CCC[C@@H](C(=O)N[C@H](C=O)CC(=O)O)N3C2=O)cc1Cl [Compound 214l, [3S(1S,9S)]3-(9-(3-Chloro-4-acetamidobenzoyl)amino-6,10-dioxo-1,2,3,4,7,8,9,10-octahydro-6H-pyridazino[1,2-a][1,2]diazepine-1-carboxamido)-4-oxobutanoic acid]
IC50 (IL-1β, human whole blood; [2]): 1100 nM | inhibition at 50 mg/kg [1, 3]: 54% | inhibition at 50 mg/kg [1, 4]: 0%

Structure (SMILES): COc1c(Cl)cc(C(=O)N[C@H]2CCC(=O)N3CCC[C@@H](C(=O)N[C@H](C=O)CC(=O)O)N3C2=O)cc1Cl [Compound 214m]
IC50 (IL-1β, human whole blood; [2]): 2200 nM | inhibition at 50 mg/kg [1, 3]: 17% | inhibition at 50 mg/kg [1, 4]: 0%

Structure (SMILES): Cc1cc(C(=O)N[C@H]2CCC(=O)N3CCC[C@@H](C(=O)N[C@H](C=O)CC(=O)O)N3C2=O)cc(C)c1O [Compound 214w]
IC50 (IL-1β, human whole blood; Table 17, read-out: Whole human blood IC50): 370 nM | percent inhibition of IL-1β production ([1]; administered 0 h relative to time of LPS challenge): 91% | percent inhibition of IL-1β production ([1]; administered −2 h relative to time of LPS challenge): 11%

Structure (SMILES): O=C(O)C[C@H](NC(=O)[C@@H]1CCCN2C(=O)CC[C@H](NC(=O)c3ccccc3)C(=O)N12)C(=O)CSc1nnnn1-c1ccccc1 [Compound 280, [3S(1S,9S)]3-(9-Benzoylamino-6,10-dioxo-1,2,3,4,7,8,9,10-octahydro-6H-pyridazino[1,2-a][1,2]diazepine-1-carboxamido)-4-oxo-5(1-phenyl-1H-tetrazole-5-thio)pentanoic acid]
IC50 (IL-1β, human whole blood; [6]): > 1000 nM

Structure (SMILES): O=C(O)C[C@H](NC(=O)[C@@H]1CCCN2C(=O)CC[C@H](NC(=O)c3ccccc3)C(=O)N12)C(=O)COc1cccnc1 [Compound 283, [3S(1S,9S)]3-[9-Benzoylamino-6,10-dioxo-1,2,3,4,7,8,9,10-octahydro-6H-pyridazino[1,2-a][1,2]diazepine-1-carboxamido]-4-oxo-5-(3-pyridyloxy)pentanoic acid]
IC50 (IL-1β, human whole blood; [6]): 450 nM

Structure (SMILES): CS(=O)(=O)N[C@H]1CCC(=O)N2CCC[C@@H](C(=O)N[C@@H](CC(=O)O)C(=O)COC(=O)c3cccc4ccccc34)N2C1=O [Compound 286, [3S(1S,9S)]3-(6,10-Dioxo-9-methanesulphonylamino-1,2,3,4,7,8,9,10-octahydro-6H-pyridazino[1,2-a][1,2]diazepine-1-carboxamido)-5-(1-naphthoyloxy)-4-oxopentanoic acid]
IC50 (IL-1β, human whole blood; [5]): 1600 nM

Structure (SMILES): CC(C)(C)OC(=O)C[C@@H](C=O)NC(=O)[C@@H]1CCCN2C(=O)CC[C@H](NC(=O)c3ccccc3)C(=O)N12 [Compound 302, [3S(1S,9S)3-(9-Benzoylamino-6,10-dioxo-1,2,3,4,7,8,9,10-octahydro-6H-pyriazino-[1,2-a][1,2]diazapine-1-carboxamido)-amino]-4-oxobutanoic acid tert-butyl ester]
IC50 (IL-1β, human whole blood; [6]): > 20000 nM | Inhibition of IL-1β Production, compound administered 0 hr relative to LPS challenge [1]: 21% | Inhibition of IL-1β Production, compound administered +1 hr relative to LPS challenge [1]: 26% | Inhibition of IL-1β Production, compound administered −1 hr relative to LPS challenge [1]: 27% | Inhibition of IL-1β Production, compound administered −2 hr relative to LPS challenge [1]: 0%

Structure (SMILES): O=C[C@H](CC(=O)O)NC(=O)[C@@H]1CCCN2C(=O)CC[C@H](NC(=O)c3nccc4ccccc34)C(=O)N12 [Compound 412, [3S(1S,9S)]3-[6,10-Dioxo-9-(isoquinolin-1-oylamino)-1,2,3,4,7,8,9,10-octahydro-6H-pyridazino[1,2-a][1,2]diazepine-1-carboxamido]-4-oxobutanoic acid]
IC50 (IL-1β, human whole blood; [7]): 1000 nM | IC50 (IL-1β, human whole blood; [6]): 700 nM

Structure (SMILES): Cc1nc(C)c(C(=O)N[C@H]2CCC(=O)N3CCC[C@@H](C(=O)N[C@H](C=O)CC(=O)O)N3C2=O)s1 [Compound 423]
IC50 (IL-1β, human whole blood; [6]): 1500 nM

Structure (SMILES): O=C[C@H](CC(=O)O)NC(=O)[C@@H]1CCCN2C(=O)CC[C@H](NC(=O)c3cccc(Cl)c3)C(=O)N12 [Compound 455]
IC50 (IL-1β, human whole blood; [7]): 2600 nM | IC50 (IL-1β, human whole blood; [6]): 2800 nM

Structure (SMILES): CC(C)C(=O)Nc1ccc(C(=O)N[C@H]2CCC(=O)N3CCC[C@@H](C(=O)N[C@H](C=O)CC(=O)O)N3C2=O)cc1 [Compound 484]
IC50 (IL-1β, human whole blood; [6]): 5000 nM

Structure (SMILES): CC(=O)N1C[C@H](NC(=O)c2cc(C)c(O)c(C)c2)C(=O)N(CC(=O)N[C@H](C=O)CC(=O)O)c2ccccc21 [Compound 671, (3S)-3-[(3S)-2-Oxo-3-(3,5-dimethyl-4-hydroxybenzoyl)amino-5-acetyl-2,3,4,5-tetrahydro-1H-1,5-benzodiazepine-1-acetylamino]-4-oxo-butyric acid]
IC50 (IL-1β, human whole blood; [2]): 2500 nM

Structure (SMILES): O=C[C@H](CC(=O)O)NC(=O)CN1C(=O)[C@@H](NC(=O)c2nccc3ccccc23)CN(C(=O)CO)c2ccccc21 [Compound 696, (3S)-3-[(3S)-2-Oxo-3-(isoquinolin-1-oyl)amino-5-hydroxyacetyl-2,3,4,5-tetrahydro-1H-1,5-benzodiazepine-1-acetylamino]-4-oxo-butyric acid]
IC50 (IL-1β, human whole blood; [2]): 2900 nM

Structure (SMILES): O=C[C@H](CC(=O)O)NC(=O)[C@@H]1CCCN2C(=O)CCN(NS(=O)(=O)c3ccccc3)C(=O)N12 [Compound 1027, [3S(4S)]3-(6,10-Dioxo-1,2,3,4,7,8,9,10-octahydro-7-phenylsulphonylamino-6H-pyridazino[1,2-a][1,2,4]triazepine-4-carboxamido)-4-oxobutanoic acid]
IC50 (IL-1β, human whole blood; [6]): > 20000 nM

Structure (SMILES): O=C[C@H](CC(=O)O)NC(=O)[C@@H]1CCCN2C(=O)CCN(NC(=O)c3cc4ccccc4s3)C(=O)N12 [Compound 1053, [3S(4S)]3-[7-(Benzo[b]thiophene-2-carbonyl)amino-6,10-dioxo-1,2,3,4,7,8,9,10-octahydro-6H-pyridazino[1,2-a][1,2,4]triazepine-4-carboxamido]-4-oxobutanoic acid]
IC50 (IL-1β, human whole blood; [2]): > 20000 nM

Structure (SMILES): COCC(=O)N1C[C@H](NC(=O)c2cccc3ccccc23)C(=O)N(CC(=O)N[C@H](C=O)CC(=O)O)c2ccccc21 [Compound 2201, (3S)-3-[(3S)-2-oxo-3-(1-naphthoyl)amino-5-methoxyacetyl-2,3,4,5-tetrahydro-1H-1,5-benzodiazepine-1-acetylamino]4-oxo-butyric acid]
IC50 (IL-1β, human whole blood; [6]): 3500 nM

The next lines start with the values.

IC50 (IL-1β, human whole blood; [6]): > 10000 nM
Structure (SMILES): COCC(=O)N1C[C@H](NC(=O)c2ccccc2)C(=O)N(CC(=O)N[C@H](C=O)CC(=O)O)c2ccccc21 [Compound 605e, (3S)-3-[(3S)-2-Oxo-3-benzoylamino-5-methoxyacetyl-2,3,4,5-tetrahydro-1H-1,5-benzodiazepin-1-acetylamino]-4-oxo-butyric acid]

IC50 (IL-1β, human whole blood; [2]): 1200 nM
Structure (SMILES): Cc1cc(C(=O)N[C@H]2CN(C(=O)CO)c3ccccc3N(CC(=O)N[C@H](C=O)CC(=O)O)C2=O)cc(C)c1O [Compound 691a, (3S)-3-[(3S)-2-Oxo-3-(3,5-dimethyl-4-hydroxybenzoyl)amino-5-hydroxyacetyl-2,3,4,5-tetrahydro-1H-1,5-benzodiazepine-1-acetylamino]-4-oxo-butyric acid]
